Where two headings read alike, the source gives them in different places.
Tests used:
[1] = Stability and formation of treprostinil in rat cryopreserved hepatocytes
[2] = Stability and formation of treprostinil in dog cryopreserved hepatocytes
[3] = Stability and formation of treprostinil in human cryopreserved hepatocytes
[4] = molecular target: T1, prostaglandin D2 (PGD2) receptor 1 (DP1) (Homo sapiens, UniProt Q13258); assay: DP1 receptor cAMP assay (agonist mode); type: cell-based; conditions: Table 24; relative to treprostinil EC50 values; * partial agonists or ambiguous dose-response curves; image character = too high to realistically calculate
T1 construct: expressed in transfected cells; host or cells: HEK293T
T1 sequence (Q13258 1-359): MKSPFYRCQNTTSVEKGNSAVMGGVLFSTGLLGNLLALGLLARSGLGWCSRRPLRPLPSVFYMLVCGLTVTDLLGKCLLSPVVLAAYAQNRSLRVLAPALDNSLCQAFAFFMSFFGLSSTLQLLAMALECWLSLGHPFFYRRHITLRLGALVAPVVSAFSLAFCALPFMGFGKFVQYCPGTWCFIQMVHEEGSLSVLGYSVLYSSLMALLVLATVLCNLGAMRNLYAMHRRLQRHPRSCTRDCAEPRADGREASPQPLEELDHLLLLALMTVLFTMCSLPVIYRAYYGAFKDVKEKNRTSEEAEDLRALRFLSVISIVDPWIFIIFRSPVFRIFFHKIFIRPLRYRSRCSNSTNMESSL
Description: (§1) Gas Cyclic AMP (cAMP) Assay: In agonist mode testing, cells were seeded in a 384-well plate at an appropriate density and then were treated with compounds and incubated at 37° C. for 20 minutes. The reaction was terminated by sequentially adding sequentially adding trFluor™ Eu-labeled cAMP and trFluor™ 650-labeled anti-cAMP antibody in lysis buffer. […] All testing wells contained 0.1% DMSO in the final concentrations.
(§2) Data in graphs are represented in Mean±SD. Dose-dependent responses were fitted with sigmoidal dose-response curves allowing variable slopes using GraphPad Prism version 6 (Graphpad Prism).

[5] = molecular target: T2, prostaglandin E2 (PGE2) receptor 2 (EP2) (Homo sapiens, UniProt P43116); assay: EP2 receptor cAMP assay (agonist mode); type: cell-based; conditions: Table 24; relative to treprostinil EC50 values; * partial agonists or ambiguous dose-response curves; image character = too high to realistically calculate
T2 construct: expressed in transfected cells; host or cells: HEK293T
Description: as §1, §2

[6] = molecular target: T3, prostaglandin I2 (PGI2) receptor (IP) (Homo sapiens, UniProt P43119); assay: IP receptor cAMP assay (agonist mode); type: cell-based; conditions: Table 24; relative to treprostinil EC50 values; * partial agonists or ambiguous dose-response curves; image character = too high to realistically calculate
T3 construct: expressed in transfected cells; host or cells: CHO-K1

PGE2 receptor 1 (EP1) = molecular target: T4, PGE2 receptor 1 (EP1) (Homo sapiens, UniProt P34995); assay: EP1 receptor calcium assay (agonist mode); type: cell-based; conditions: Table 24; relative to treprostinil EC50 values; * partial agonists or ambiguous dose-response curves; image character = too high to realistically calculate
T4 construct: expressed in transfected cells; host or cells: HEK293T
T4 sequence (P34995 1-402): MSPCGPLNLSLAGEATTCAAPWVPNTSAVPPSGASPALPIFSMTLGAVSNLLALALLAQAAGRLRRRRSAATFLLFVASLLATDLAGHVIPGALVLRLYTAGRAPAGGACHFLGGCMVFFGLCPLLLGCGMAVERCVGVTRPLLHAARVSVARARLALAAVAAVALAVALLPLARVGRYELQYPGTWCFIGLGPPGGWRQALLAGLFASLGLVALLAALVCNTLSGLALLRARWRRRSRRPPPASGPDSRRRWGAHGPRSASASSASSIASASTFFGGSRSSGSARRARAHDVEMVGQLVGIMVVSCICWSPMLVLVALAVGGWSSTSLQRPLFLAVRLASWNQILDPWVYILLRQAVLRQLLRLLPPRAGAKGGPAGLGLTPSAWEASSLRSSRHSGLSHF
Description: Assay Buffer: • EP1 Calcium and DP1 cAMP Assays: HBSS plus 20 mM HEPES • EP2 and IP1 cAMP Assays: 1 mM IBMX in HBSS plus 20 mM HEPES
Cells were thawed from frozen cells and resuspended in assay buffer at desired concentrations. cAMP or Calcium assays were performed according to the manufacturer's protocol using Multiscreen™ TR-FRET cAMP 1.0 No Wash Assay Kit or Multiscreen™ Calcium 1.0 No Wash Kit.
Calcium Assay: Cells were seeded in a 384-well plate at an appropriate density. The calcium assay was conducted according to the manufacturer's protocols (Multiscreen Calcium 1.0 No Wash Assay Kit). The calcium dye loading buffer was added to the cells and incubated for 1 hour at 37° C. For agonist mode, cells were injected with Iloprost control agonist or test compound by FLIPR and calcium mobilization was monitored for 180 seconds with compound injected into the wells at the 19th second. Fluorescent emissions were read at 525 nm with excitation at 490 nm in a FLIPR 384 instrument (Molecular Devices).
Calcium Assay: Calcium assay results are expressed as “RFU” as defined in figure below. Data are represented in Mean±SEM. Dose-response curves were fitted using “Sigmoidal dose-response (variable slope)” function in GraphPad Prism 6. EC50 values were calculated based on the fitted curves.
Prostaglandin receptor activity assessments with treprostinil and treprostinil analogues have been conducted, and a historical, positive control agonist for these receptors, iloprost (for IP, EP2 and EP1) or PGD2 (for DP1), was also included. These studies used cell lines overexpressing either human IP, EP2 or DP1, or EP1 receptors, and following incubation with varying concentrations of compounds, cAMP levels were measured using Fluorescence Resonance Energy Transfer (FRET). The 665/620 (acceptor/donor emission signals) ratio is inversely proportional to the concentration of cAMP.

[7] = both, human, 1 μM, pH 7.4
Description: (§3) Mixed-gender human liver microsomes, male Sprague-Dawley rat liver microsomes, and male Beagle dog liver microsomes were purchased from XenoTech. The reaction mixture, minus NADPH, was prepared as described below. […] An aliquot of the reaction mixture (without cofactor) was equilibrated in a shaking water bath at 37° C. for 5 minutes. The reaction was initiated by the addition of cofactor, and the mixture was incubated in a shaking water bath at 37° C. Aliquots (200 μL) were withdrawn at 0, 10, 20, 30, and 60 minutes. Test article samples were immediately combined with 400 μL of ice-cold acetonitrile (ACN) to terminate the reaction. […] The samples were then mixed and centrifuged to precipitate proteins. Aliquots of the supernatant were removed, diluted 1:1 into distilled water containing internal standard, and analyzed by LC-MS/MS against calibration standards prepared in a matched matrix. All samples were analyzed for the dosed prodrugs as well as the drug, treprostinil. The test article concentration was compared to the concentration at time 0 to determine the percent of test article remaining at each time point. Half-lives and clearance were calculated using GraphPad software, fitting to a single-phase exponential decay equation.
Liver Microsomes 0.5 mg/mL
Potassium Phosphate, pH 7.4 100 mM

[8] = male, Beagle, dog, 1 μM, pH 7.4
Description: as §3
Liver Microsomes 0.5 mg/mL
Potassium Phosphate, pH 7.4 100 mM

[9] = human, 1 μM
Description: For each of the test articles, 495 μL of skin homogenate was added to triplicate centrifuge tubes. To each tube, 5 μL of a 100 μM solution of test article was added, for a final test article dosing concentration of 1 μM. The tubes were placed onto a Thermomixer and maintained at 37° C. with gentle shaking for the duration of the experiment. At each time point (0, 30, 60, and 120 minutes), a 100 μL aliquot was removed from each tube and combined with 200 μL of acetonitrile to stop the stability reaction. The tubes were mixed and centrifuged at 3000 rpm for 10 minutes. Aliquots of supernatant were removed and diluted 1:1 with distilled water containing internal standard (2 μM treprostinil-d4). Calibration standards for the treprostinil analysis were prepared for each test article in a surrogate matrix (supernatant from a mixture of 1:2 human plasma:acetonitrile), at concentrations ranging from 1 μM to 1 nM. Calibration standards were also diluted 1:1 with distilled water containing internal standard.

[10] = male, Sprague-Dawley, rat, 1 μM, pH 7.4
Description: as §3
Liver Microsomes 0.5 mg/mL
Potassium Phosphate, pH 7.4 100 mM

[11] = Stability and formation of treprostinil in dog liver microsomes; conditions: male, Beagle, pH 7.4
Description: as §3
Liver Microsomes 0.5 mg/mL
Potassium Phosphate, pH 7.4 100 mM

[12] = Stability and formation of treprostinil in rat liver microsomes; conditions: male, Sprague-Dawley, pH 7.4
Description: as §3
Liver Microsomes 0.5 mg/mL
Potassium Phosphate, pH 7.4 100 mM

[13] = Stability and formation of treprostinil in human liver microsomes; conditions: both, pH 7.4
Description: as §3
Liver Microsomes 0.5 mg/mL
Potassium Phosphate, pH 7.4 100 mM

[14] = cited from earlier work

T3 sequence (P43119 whole entry): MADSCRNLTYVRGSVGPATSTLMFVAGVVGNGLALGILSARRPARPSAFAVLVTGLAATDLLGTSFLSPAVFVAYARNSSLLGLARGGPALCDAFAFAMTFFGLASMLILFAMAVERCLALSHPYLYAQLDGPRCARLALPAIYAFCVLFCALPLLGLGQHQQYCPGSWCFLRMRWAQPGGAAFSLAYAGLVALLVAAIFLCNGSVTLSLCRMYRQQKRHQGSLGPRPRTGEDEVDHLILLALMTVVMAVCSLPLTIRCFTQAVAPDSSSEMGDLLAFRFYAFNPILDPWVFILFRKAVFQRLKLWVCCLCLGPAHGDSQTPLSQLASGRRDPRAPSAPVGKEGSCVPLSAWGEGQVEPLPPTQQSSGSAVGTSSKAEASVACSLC
T2 sequence (P43116 whole entry): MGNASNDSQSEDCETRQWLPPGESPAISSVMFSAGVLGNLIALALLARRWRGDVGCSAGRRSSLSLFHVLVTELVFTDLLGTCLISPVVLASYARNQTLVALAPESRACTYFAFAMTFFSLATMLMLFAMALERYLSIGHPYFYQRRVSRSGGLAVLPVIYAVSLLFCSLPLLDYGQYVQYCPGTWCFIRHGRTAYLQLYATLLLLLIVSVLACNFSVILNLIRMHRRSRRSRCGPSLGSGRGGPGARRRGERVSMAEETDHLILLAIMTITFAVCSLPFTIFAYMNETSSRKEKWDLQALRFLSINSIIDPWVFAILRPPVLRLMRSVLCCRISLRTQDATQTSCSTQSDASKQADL

Compound: CCCCC[C@@H](CC[C@@H]1[C@H]2Cc3cccc(OCC(=O)O)c3C[C@H]2C[C@H]1O)OC(=O)CC [Prodrug LV, treprostinil side chain propionic ester]
- Treprostinil Concentration, 0 min [1]: 0.0159 µM
- Treprostinil Concentration, 15 min [1]: 0.506 µM
- Treprostinil Concentration, 30 min [1]: 0.48 µM
- Treprostinil Concentration, 60 min [1]: 0.424 µM
- Treprostinil Concentration, 120 min [1]: 0.391 µM
- Treprostinil Concentration, 0 min [2]: 0.124 µM
- Treprostinil Concentration, 15 min [2]: 0.781 µM
- Treprostinil Concentration, 30 min [2]: 0.698 µM
- Treprostinil Concentration, 60 min [2]: 0.599 µM
- Treprostinil Concentration, 120 min [2]: 0.53 µM
- Treprostinil Concentration, 0 min [3]: 0.113 µM
- Treprostinil Concentration, 15 min [3]: 0.725 µM
- Treprostinil Concentration, 30 min [3]: 0.654 µM
- Treprostinil Concentration, 60 min [3]: 0.589 µM
- Treprostinil Concentration, 120 min [3]: 0.527 µM
- Activity, DP1 Relative to Tre [4]: 94x
- Activity, EP2 Relative to Tre [5]: 50x
- Activity, IP Relative to Tre [6]: 54x
- Activity, EP1 Relative to Tre (PGE2 receptor 1 (EP1)): 122x*

Compound: CCCCC[C@@H](CC[C@@H]1[C@H]2Cc3cccc(OCC(=O)O)c3C[C@H]2C[C@H]1O)OC(C)=O [Prodrug XLIII, 2-(((1R,2R,3aS,9aS)-1-((S)-3-acetoxyoctyl)-2-hydroxy-2,3,3a,4,9,9a-hexahydro-1H-cyclopenta[b]naphthalen-5-yl)oxy)acetic acid]
- Treprostinil Concentration, 0 min ([1]; male, Sprague-Dawley, rat, 0 min, 1 μM, pH 7.4): 0.00292 µM
- Treprostinil Concentration, 15 min ([1]; male, Sprague-Dawley, rat, 15 min, 1 μM, pH 7.4): 0.161 µM
- Treprostinil Concentration, 30 min ([1]; male, Sprague-Dawley, rat, 30 min, 1 μM, pH 7.4): 0.266 µM
- Treprostinil Concentration, 60 min ([1]; male, Sprague-Dawley, rat, 60 min, 1 μM, pH 7.4): 0.397 µM
- Treprostinil Concentration, 120 min ([1]; male, Sprague-Dawley, rat, 120 min, 1 μM, pH 7.4): 0.503 µM
- Treprostinil Concentration, 0 min ([2]; male, Beagle, dog, 0 min, 1 μM, pH 7.4): 0.0381 µM
- Treprostinil Concentration, 15 min ([2]; male, Beagle, dog, 15 min, 1 μM, pH 7.4): 0.628 µM
- Treprostinil Concentration, 30 min ([2]; male, Beagle, dog, 30 min, 1 μM, pH 7.4): 0.543 µM
- Treprostinil Concentration, 60 min ([2]; male, Beagle, dog, 60 min, 1 μM, pH 7.4): 0.446 µM
- Treprostinil Concentration, 120 min ([2]; male, Beagle, dog, 120 min, 1 μM, pH 7.4): 0.4 µM
- Treprostinil Concentration, 0 min ([7]; 0 min): 0.883 µM
- Treprostinil Concentration, 15 min ([7]; 15 min): 0.681 µM
- Treprostinil Concentration, 30 min ([7]; 30 min): 0.602 µM
- Treprostinil Concentration, 60 min ([7]; 60 min): 0.513 µM
- Treprostinil Concentration, 120 min ([7]; 120 min): 0.341 µM
- Treprostinil Concentration, 0 min ([8]; 0 min): 0.964 µM
- Treprostinil Concentration, 15 min ([8]; 15 min): 0.917 µM
- Treprostinil Concentration, 30 min ([8]; 30 min): 0.899 µM
- Treprostinil Concentration, 60 min ([8]; 60 min): 0.932 µM
- Treprostinil Concentration, 120 min ([8]; 120 min): 0.873 µM
- Treprostinil Concentration, 0 min ([9]; 0 min): 0.0034 µM
- Treprostinil Concentration, 30 min ([9]; 30 min): 0.382 µM
- Treprostinil Concentration, 60 min ([9]; 60 min): 0.583 µM
- Treprostinil Concentration, 120 min ([9]; 120 min): 0.839 µM
- Treprostinil Concentration, 0 min ([3]; both, human, 0 min, 1 μM, pH 7.4): 0.00744 µM
- Treprostinil Concentration, 15 min ([3]; both, human, 15 min, 1 μM, pH 7.4): 0.573 µM
- Treprostinil Concentration, 30 min ([3]; both, human, 30 min, 1 μM, pH 7.4): 0.623 µM
- Treprostinil Concentration, 60 min ([3]; both, human, 60 min, 1 μM, pH 7.4): 0.54 µM
- Treprostinil Concentration, 120 min ([3]; both, human, 120 min, 1 μM, pH 7.4): 0.507 µM
- Activity, DP1 Relative to Tre [4]: 272x
- Treprostinil Concentration, 0 min ([10]; 0 min): 0.035 µM
- Treprostinil Concentration, 15 min ([10]; 15 min): 0.0741 µM
- Treprostinil Concentration, 30 min ([10]; 30 min): 0.111 µM
- Treprostinil Concentration, 60 min ([10]; 60 min): 0.145 µM
- Treprostinil Concentration, 120 min ([10]; 120 min): 0.206 µM
- Activity, EP2 Relative to Tre [5]: 461x
- Activity, IP Relative to Tre [6]: 632x
- Activity, EP1 Relative to Tre (PGE2 receptor 1 (EP1)): 20x*

Compound: C[C@]12CC[C@H]3[C@@H](CCC4=CC(=O)CC[C@@]43C)[C@@H]1CC[C@@H]2O [Testosterone, testosterone]
- hepatocyte CLint at 1 μM ([1]; male, Sprague-Dawley, rat, hepatocytes, pH 7.4): 448 µL/min/1e6 cells
- half-life at 1 μM ([2]; male, Beagle, dog, hepatocytes, pH 7.4): 6.5 min
- Half-Life [11]: 37.7 min
- microsomal CLint [11]: 36.8 µL/min/mg
- Half-Life [12]: 1.71 min
- microsomal CLint [12]: 809 µL/min/mg
- Half-Life [13]: 29.2 min
- microsomal CLint [13]: 47.5 µL/min/mg
- hepatocyte CLint at 1 μM ([3]; both, human, hepatocytes, pH 7.4): 95.9 µL/min/1e6 cells

Compound: CCCCC[C@H](O)CC[C@@H]1[C@H]2Cc3cccc(OCC(=O)OCC)c3C[C@H]2C[C@H]1O [Treprostinil ethyl ester]
- Activity, DP1 Relative to Tre [4]: 18x
- Activity, EP2 Relative to Tre [5]: 11x
- Activity, IP Relative to Tre [6]: 35x
- Activity, EP1 Relative to Tre (PGE2 receptor 1 (EP1)): 30x

Compound: CCCCC[C@H](O)CC[C@@H]1[C@H]2Cc3cccc(OCC(=O)O)c3C[C@H]2C[C@H]1O [treprostinil, Treprostinil]
- First-pass effect ([14]; oral delivery, animal studies): approximately 60%
- Half-life once absorbed ([14]; regardless of the route of administration): about 1 hour
